As usually defined, the melting point is the temperature, or range, at which the solid turns liquid. In general, IC50 refers to the concentration that gives 50% inhibition. As a reminder, the inhibition is the drop in the measured response relative to a control, in per cent. Read a low inhibition as a response near the control.

For data set [1], the target named is PDE 4. Description: Inhibition of phosphodiesterase 4 (enzyme preparation from human PMNL, [3H]-cAMP). Conditions: PDE 4 from human PMNL cytosol, 0.5 μM [3H]-cAMP. The class given is biochemical. The procedure: The PDE 4 activity is determined in enzyme preparations from human polymorphonuclear […] (PMNL) and the PDE 2, 3 and 5 activity is determined with PDE from human thrombocytes. Human blood was anti-coagulated with citrate. By centrifuging at 700×g for 20 minutes at room temperature, the thrombocyte-rich plasma in the supernatant is separated from the erythrocytes and leukocytes. The thrombocytes are lysed by ultrasound and used in the PDE 3 and PDE 5 assays. For the determination of the PDE 2 activity, the cytosolic thrombocyte fraction is purified on an anionic exchange column by means of NaCl gradients and the PDE 2 peak is obtained for the assay. The PMNLs for the PDE 4 determination are isolated by a subsequent dextran sedimentation, followed by a gradient centrifugation with Ficoll-Paque. After the cells have been washed twice, the erythrocytes, still contained, are lysed within 6 minutes at 4° C. by the addition of 10 mL of hypotonic buffer (155 mM of NH4Cl, 10 mM of NaHCO3, 0.1 mM of EDTA, pH=7.4). The PMNLs, which are still intact, are washed twice with PBS and lysed with ultrasound. The supernatant of a one-hour centrifugation at 4° C. at 48,000×g contains the cytosolic fraction of the PDE 4 and is used for the PDE 4 measurements.
The phosphodiesterase activity is determined using the method described by Thompson et al. with some modifications (Thompson, W. J. and M. M. Appleman, Assay of cyclic nucleotide phosphodiesterase and resolution of multiple molecular forms of the enzyme, Adv. Cycl. Nucl. Res. 1979, 10, 69–92).
The reaction mixtures contain 50 mM of tris hydrochloride (pH 7.4), 5 mM of magnesium chloride, the inhibitors in various concentrations, the corresponding enzyme preparation as well as the further components necessary for determining the individual isoenzymes (see below). The reaction is started by the addition of the substrate, 0.5 μM of [^3H]-cAMP or [^3H]-cGMP (approximately 6000 CPM per test). The final volume is […]. Test substances are mixed as stock solutions in DMSO. The DMSO concentration in the reaction mixture is 1% v/v. The PDE activity is not affected by this concentration of DMSO. After the reaction is started by the addition of substrate, samples are incubated for 30 minutes at 37° C. The reaction is stopped by heating the test tubes for 2 minutes at 110° C. The samples remain for a further 10 minutes in ice. The addition of 30 μL of 5′-nucleotidase (1 mg/mL, from a poisonous snake suspension from Crotalus adamanteus) is followed by a 10-minutes incubation at 37° C. The samples are stopped on ice, in each case 400 μL of a mixture of Dowex, water and ethanol (1+1+1) is added, mixed well and incubated once again for 15 minutes on ice. The reaction vessels are centrifuged for 20 minutes at 3000×g. Aliquots of the supernatant (200 μL) are transferred directly to scintillation vessels. After the addition of 3 mL of scintillator, the samples are measured in the beta counter.
[^3H]-cAMP is used as substrate for the determination of the PDE 4, 3 and 2 activity and [^3H]-cGMP is used as substrate for the determination of the PDE 5 activity. The enzyme activities, which are nonspecific in each case, are determined in the presence of 100 μM of Rolipram for the determination of PDE 4 and in the presence of 100 μM of IBMX for the determination of the PDE 3 and 5 and subtracted from the test values. The incubation formulations of the PDE 3 assays contained 10 μM of Rolipram, in order to inhibit possible contaminations by PDE 4. The PDE 2 is tested with an SPA assay of the Amersham Company. The assay is carried out in the presence of the activator of the PDE 2 (5 μM of cGMP).

In data set [2] the test system is release of TNFα from cells of nasal polyps. Description: Inhibition of the release of TNFα from cells of nasal polyps (anti-IgE stimulated, ELISA). Conditions: Homo sapiens; concentration 1.0 μmole/L; anti-IgE stimulated nasal polyp cells. The class given is cell-based. The procedure: The experimental arrangement corresponds essentially to the method described by Campbell, A. M. and J. Bousquet (Anti-allergic activity of H1-blockers, Int. Arch. Allergy Immunol., 1993, 101, 308–310). Nasal polyps form the starting material (material from patients, who had been subjected to a surgical treatment).
The tissue is washed with RPMI 1640 and subsequently digested with protease (2.0 mg/mL), collagenase (1.5 mg/mL), hyaluronidase (0.75 mg/mL), and DNAse (0.05 mg/mL) for two hours at 37° C. (1 g of tissue and 4 mL of RPMI 1640 with enzymes). The cells obtained, a mixture of epithelial cells, monocytes, macrophages, lymphocytes, fibroblasts and granulocytes, are filtered and washed by being centrifuged repeatedly in culture solution and sensitized passively by the addition of human IgE and the cell suspension is brought to a concentration of 2 million cells/mL in RPMI 1640 (supplemented by antibiotics, 10% fetal calf serum, 2 mM of glutamine and 25 mM of Hepes). This suspension is distributed on six-well cell culture plates (1 ml/well). The cells are pre-incubated for 30 minutes with the test substances in different final concentrations and subsequently stimulated to release TNFα by the addition of anti-IgE (7.2 μg/mL). The maximum release into the culture medium takes place after about 18 hours. During this period, the cells are incubated at 37° C. and 5% carbon dioxide. The culture medium (supernatant) is recovered by centrifuging (five minutes at 4000 rpm) and kept at −70° C. until the cytokin is determined. The TNFα in the supernatant is determined with so-called sandwich ELISAs (basic material Pharmingen), with which cytokin concentrations ranging from 30 to 1000 pg/mL can be determined.
Cells, not stimulated with anti IgE, hardly produce any TNFα; on the other hand, stimulated cells secrete large amounts of TNFα, which can be reduced, for example, by PDE 4 inhibitors as a function of the dose. From the percentage inhibition (TNFα release by the cells, stimulated with anti IgE=100%) of the substances tested at different concentrations, the IC50 (concentration at 50% inhibition) is calculated.
Background: ELISA stands for enzyme-linked immunosorbent assay.

Data set [3] has as its system actively sensitized Brown Norway Rats. Description: Inhibition of the late phase eosinophilia 48 hours after inhalative ovalbumin challenge. It counts as in vivo, rat. Conditions: 2 h before allergen challenge, BAL 48 h after challenge. The procedure: The inhibition of pulmonary eosinophilia infiltration by the inventive substances is tested on male Brown Norway Rats (200–250 g), which had been actively sensitized against ovalbumin (OVA). The rats were sensitized by subcutaneous injections of a suspension of 10 μg OVA together with 20 mg of aluminum hydroxide as adjuvant in 0.5 mL of physiological salt solution per animal on days 1, 14 and 21. In addition, the animals at the same time received Bordetella pertussis vaccine dilution injected 0.25 mL i.p. per animal. On the 28th day of the experiment, the animals are placed individually in open 1 L Plexiglas boxes, which are connected to a head-nose exposure device. The animals are exposed to an aerosol of 1.0% ovalbumin suspension (allergen challenge). The ovalbumin aerosol is produced by a nebulizer (Bird Micronebulizer, Palm Springs Calif., USA), which is operated with compressed air (0.2 MPa). The exposure time is one hour, normal controls being nebulized also for one hour with an aerosol of 0.9% salt solution.
Forty-eight hours after the allergen challenge, there is a massive migration of eosinophilic granulocytes into the lungs of the animals. At this time, the animals are anesthetized with an excess of ethyl urethane (1.5 g/kg of body weight i.p.) and a bronchoalveolar lavage (BAL) with 3×4 mL of Hank's balance solution is carried out. The total cell count and the number of eosinophilic granulocytes of the pooled BAL liquid are subsequently determined with an automatic cell differentiation instrument (Bayer Diagnostics Technicon HIE). For each animal, the eosinophiles (EOS) in the BAL are calculated in millions/animal: EOS/μl×BAL recovery (mL)=EOS/animal.
For each test, 2 control groups were run (nebulization with physiological salt solution and nebulization with OVA solution).
The percentage inhibition of the eosinophilia of the experimental group, treated with substance, was calculated according to the following formula: {((OVAC−SC)−(OVAD−SC))/(OVAC−SC)}×100%=% inhibition (SC=vehicle-treated control group challenged with 0.9% salt solution; OVAC=vehicle-treated control group challenged with 1% ovalbumin suspension; OVAD=substance-treated experimental group challenged with 1% ovalbumin suspension)
The test substances are applied i.p. or orally as a suspension in 10% polyethylene glycol 300 and 0.5% 5-hydroxyethylcellulose for two hours before the allergen challenge. The control groups are treated with the vehicle in accordance with the application form of the test substance.

Where a name gives a salt, the structure may show the parent alone.

As to `O=C(Nc1c(Cl)cccc1Cl)C(=O)c1cn(Cc2ccc(Cl)cc2)c2ncccc12` [Example 18], the melting point lay in the range of 166 to 168 °C. The compound also registered an IC50 in data set [1] of 31 nM.

In turn, `O=C(Nc1ccncc1)C(=O)c1cn(Cc2ccc(Cl)cc2)c2ncccc12` [Example 15] came in with an IC50 in data set [1] of 31 nM.

Regarding `Cc1[nH]c(=O)[nH]c(=O)c1NC(=O)C(=O)c1cn(Cc2ccc(F)cc2)c2ncccc12` [Example 37], the melting point is 297 to 300 °C (dec.). In data set [1], this compound came in with an IC50 of 987 nM.

On to `Cc1noc(C)c1Cn1cc(C(=O)C(=O)Nc2c(Cl)cncc2Cl)c2cccnc21` [Example 32], for which the melting point was 196 to 198 °C. The IC50 in data set [1] came to 113 nM.

As to `CC(C)Cn1cc(C(=O)Nc2c(Cl)cncc2Cl)c2cccnc21` [Example 2], the half-maximal inhibitory concentration (IC50) in data set [1] stood at 1400 nM.

Take `O=C(NCc1ccncc1)c1cn(CC2CC2)c2ncccc12` [Example 1, N-(4-Pyridylmethyl)-1-cyclopropylmethyl-7-azaindole-3-carboxylic Acid Amide]: in data set [1], the IC50 is 710 nM.

Turning to `O=C(Nc1ccncc1)C(=O)c1cn(Cc2ccc(F)cc2)c2ncccc12` [Example 13], half-maximal inhibition in data set [1] (IC50) required 58 nM.

As to `O=C(Nc1c(Cl)cncc1Cl)C(=O)c1cn(Cc2ccc(Cl)cc2)c2ncccc12` [Example 16], the melting point lay in the range of 205 to 207 °C. In data set [2], 1 µM produced 90% inhibition. In data set [3] (10 mg/kg i.p.), the “Inhibition of Eosinophilia” value is reported as 100%. Further, the “Inhibition of Eosinophilia” value in data set [3] (10 mg/kg p.o.) is 70%. This compound returned an IC50 in data set [1] of 2 nM.

Regarding `COc1cccc(Cn2cc(C(=O)C(=O)Nc3c(Cl)cncc3Cl)c3cccnc32)c1` [Example 12, N-(3,5-Dichloropyridine-4-yl)-[1-(3-methoxybenzyl)-7-azaindole-3-yl]-glyoxylic Acid Amide], the melting point lay within 165 to 167 °C. Besides, the IC50 in data set [1] turned out to be 5 nM.

On to `O=C(Nc1c(Cl)cncc1Cl)C(=O)c1cn(Cc2cccc(O)c2)c2ncccc12` [Example 24], for which the melting point was 241 to 244 °C. The IC50 in data set [1] is 3 nM.

On to `COc1ccc(Cn2cc(C(=O)C(=O)Nc3c(Cl)cncc3Cl)c3cccnc32)cc1` [Example 17], for which the melting point lay in the range of 165 to 167 °C. Further, the inhibition at 1 µM in data set [2] turned out to be 91%. Moreover, in data set [3] (10 mg/kg i.p.), the “Inhibition of Eosinophilia” value is reported as 75%. Moreover, in data set [3] (10 mg/kg p.o.), the “Inhibition of Eosinophilia” value is reported as 32%. For the same compound, the midpoint of inhibition in data set [1], the IC50, lay at 8 nM.

`O=C(Nc1c(Cl)cncc1Cl)C(=O)c1cn(CC2CC2)c2ncccc12` [Example 25] displayed a melting point of 215 to 218 °C. The same compound gave an IC50 in data set [1] of 4 nM.

Turning to `O=C(Nc1ccncc1)C(=O)c1cn(Cc2ccc(Cl)cc2)c2ncccc12` (as salt: HCl) [Example 15], the melting point is 280 to 283 °C (dec.).

In turn, `O=C(Nc1c(Cl)cncc1Cl)C(=O)c1cn(Cc2ccc(O)cc2)c2ncccc12` [Example 23] registered a melting point of 140 to 142 °C. This compound showed an IC50 in data set [1] of 1 nM.

Consider `O=C(Nc1ccncc1)C(=O)c1cn(Cc2ccc(F)cc2)c2ncccc12` (as salt: HCl) [Example 13], for which the melting point is 275 to 278 °C (dec.).

Compound `C=C(C)Cn1cc(C(=O)C(=O)Nc2c(Cl)cncc2Cl)c2cccnc21` [Example 28] returned a melting point of 114 to 116 °C. In data set [1], this compound showed an IC50 of 3 nM.

Compound `CCCCCCn1cc(C(=O)C(=O)Nc2c(Cl)cncc2Cl)c2cccnc21` [Example 26] showed a melting point of 165 to 167 °C. Also, the concentration for half-maximal inhibition (IC50) in data set [1] is 21 nM.

For the origin of these results see patent publication US7169787B2, “7-azaindoles, use thereof as phosphodiesterase 4 inhibitors and method for producing the same” (Elbion AG, priority 2000, dated 2007).
